Data published in patent US10975068B2, “6-aminopyridin-3-yl thiazoles as modulators of RORγT” (Janssen Pharmaceutica NV, priority 2016, dated 2021).

Biological target: human RORγt ligand binding domain (RORγt LBD) (Homo sapiens (Human), UniProt P51449)
Assay: RORγt ThermoFluor® assay (thermal shift binding)
Settings: read-out: ThermoFluor® Assay, Kd
Outline: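 Binding was inferred from thermal stabilisation (ΔTm) of the E. coli-expressed RORγt LBD (0.065 mg/mL), monitored by 1,8-ANS (60 μM) emission at 500 nm during a 1 °C/min ramp. Buffer was Hepes 100 mM pH 7.0 with NaCl, GSH and Tween-20.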

Chain of human RORγt ligand binding domain (RORγt LBD) (P51449 other isoform, or with tags, fused parts or gaps): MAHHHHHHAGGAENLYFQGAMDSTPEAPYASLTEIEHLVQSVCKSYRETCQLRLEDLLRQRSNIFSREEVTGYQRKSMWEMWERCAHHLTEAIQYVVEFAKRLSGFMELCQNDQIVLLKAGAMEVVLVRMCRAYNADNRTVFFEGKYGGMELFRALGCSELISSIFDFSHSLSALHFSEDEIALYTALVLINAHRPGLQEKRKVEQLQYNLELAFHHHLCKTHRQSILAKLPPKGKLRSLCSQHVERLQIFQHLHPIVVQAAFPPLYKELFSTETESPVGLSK

Question: For C[C@H](Nc1cc(C(F)(F)F)c(-c2sc(C(=O)NCC(C)(C)O)nc2C(=O)N2CCCC[C@@H]2C)cn1)C(F)(F)F [Example 47, N-(2-Hydroxy-2-methylpropyl)-4-((S)-2-methylpiperidine-1-carbonyl)-5-(4-(trifluoromethyl)-6-(((S)-1,1,1-trifluoropropan-2-yl)amino)pyridin-3-yl)thiazole-2-carboxamide], which Kd is on record?
Answer: Its Kd is 0.5 nM.

Question: For C[C@H]1CCCCN1C(=O)c1nc(C(=O)NCC(C)(C)O)sc1-c1cnc(NC2CCCC2)cc1C(F)F [Example 41, (S)-5-(6-(Cyclopentylamino)-4-(difluoromethyl)pyridin-3-yl)-N-(2-hydroxy-2-methylpropyl)-4-(2-methylpiperidine-1-carbonyl)thiazole-2-carboxamide], which Kd is on record?
Answer: Its Kd is 0.74 nM.

Question: With O=C(N[C@H]1C[C@H](O)C1)c1nc(C(=O)N2C3CCC2CC3)c(-c2cnc(N[C@@H](C3CC3)C(F)(F)F)cc2C(F)F)s1 [Example 318, 4-((1s,4s)-7-Azabicyclo[2.2.1]heptane-7-carbonyl)-5-(6-(((S)-1-cyclopropyl-2,2,2-trifluoroethyl)amino)-4-(difluoromethyl)pyridin-3-yl)-N-((1r,3S)-3-hydroxycyclobutyl)thiazole-2-carboxamide] as the compound, how does the Kd read?
Answer: The Kd was 8.1 nM.

Question: For C[C@H](Nc1cc(C(F)F)c(-c2sc(C(=O)NCC(C)(C)O)nc2C(=O)N2CC(F)(F)C[C@@H]2C)cn1)C(F)(F)F [Example 135], which Kd is on record?
Answer: Its Kd is 3.5 nM.
